Assay: xn = mol fraction of the nth substance listed
Conditions: 101 kPa, Liquid, Voltage change across transformer (no electrode)

CCCC[n+]1cccc(C)c1.F[B-](F)(F)F [1-butyl-3-methylpyridinium tetrafluoroborate] + CCO
electrical conductivity [S/m]
Conditions | 293.15 K | 303.15 K | 313.15 K | 323.15 K
x1 = 0.0613 | 0.787 | 1.02 | 1.26 | 1.53
x1 = 0.0737 | 0.888 | 1.14 | 1.42 | 1.72
x1 = 0.0915 | 1.02 | 1.31 | 1.63 | 1.96
x1 = 0.1113 | 1.14 | 1.48 | 1.84 | 2.19
x1 = 0.1366 | 1.24 | 1.63 | 2.04 | 2.43
x1 = 0.167 | 1.4 | 1.81 | 2.22 | 2.68
x1 = 0.1985 | 1.47 | 1.92 | 2.36 | 2.81
x1 = 0.2393 | 1.52 | 1.97 | 2.4 | 2.89
x1 = 0.2811 | 1.5 | 1.96 | 2.4 | 2.89
x1 = 0.3174 | 1.41 | 1.85 | 2.31 | 2.85
x1 = 0.3652 | 1.32 | 1.76 | 2.24 | 2.76
x1 = 0.4385 | 1.19 | 1.61 | 2.11 | 2.54
x1 = 0.4652 | 1.09 | 1.49 | 1.92 | 2.45
x1 = 0.5281 | 0.934 | 1.28 | 1.68 | 2.21
x1 = 0.5747 | 0.823 | 1.17 | 1.56 | 2.04
x1 = 0.6938 | 0.51 | 0.77 | 1.15 | 1.63
x1 = 0.7799 | 0.37 | 0.56 | 0.891 | 1.33
x1 = 0.9102 | 0.215 | 0.36 | 0.59 | 0.903
x1 = 1 | 0.155 | 0.281 | 0.461 | 0.704

CCCC[n+]1cccc(C)c1.F[B-](F)(F)F [1-butyl-3-methylpyridinium tetrafluoroborate] + CO
electrical conductivity [S/m]
Conditions | 293.15 K | 303.15 K | 313.15 K | 323.15 K
x1 = 0.0337 | 2.29 | 2.71 | 3.11 | 3.5
x1 = 0.0438 | 2.45 | 2.89 | 3.34 | 3.8
x1 = 0.0479 | 2.66 | 3.12 | 3.6 | 4.09
x1 = 0.0567 | 2.9 | 3.41 | 3.96 | 4.53
x1 = 0.0699 | 3.17 | 3.85 | 4.49 | 5.1
x1 = 0.1142 | 3.33 | 3.98 | 4.66 | 5.38
x1 = 0.1504 | 3.37 | 4.06 | 4.74 | 5.5
x1 = 0.1734 | 3.31 | 4.01 | 4.74 | 5.52
x1 = 0.2236 | 3.11 | 3.8 | 4.55 | 5.34
x1 = 0.2696 | 2.78 | 3.44 | 4.15 | 4.89
x1 = 0.3345 | 2.43 | 3.08 | 3.77 | 4.49
x1 = 0.378 | 2.19 | 2.8 | 3.45 | 4.11
x1 = 0.4258 | 1.76 | 2.31 | 2.95 | 3.59
x1 = 0.5198 | 1.3 | 1.82 | 2.3 | 2.87
x1 = 0.61 | 0.944 | 1.32 | 1.78 | 2.27
x1 = 0.729 | 0.472 | 0.686 | 1.04 | 1.58
x1 = 0.8344 | 0.28 | 0.413 | 0.672 | 1.05
x1 = 0.9177 | 0.191 | 0.311 | 0.523 | 0.817
x1 = 1 | 0.155 | 0.281 | 0.461 | 0.704

CCCC[n+]1ccc(C)cc1.F[B-](F)(F)F [1-butyl-4-methylpyridinium tetrafluoroborate] + CCO
electrical conductivity [S/m]
Conditions | 293.15 K | 303.15 K | 313.15 K | 323.15 K
x1 = 0.0448 | 0.696 | 0.877 | 1.01 | 1.1
x1 = 0.0521 | 0.791 | 1.01 | 1.22 | 1.3
x1 = 0.0608 | 0.893 | 1.15 | 1.42 | 1.55
x1 = 0.0701 | 0.991 | 1.28 | 1.58 | 1.76
x1 = 0.0843 | 1.15 | 1.47 | 1.82 | 1.95
x1 = 0.1046 | 1.29 | 1.65 | 2.08 | 2.41
x1 = 0.1232 | 1.39 | 1.8 | 2.26 | 2.64
x1 = 0.1347 | 1.44 | 1.86 | 2.33 | 2.76
x1 = 0.1551 | 1.5 | 1.95 | 2.47 | 2.92
x1 = 0.1602 | 1.51 | 1.97 | 2.49 | 2.96
x1 = 0.2251 | 1.59 | 2.09 | 2.67 | 3.22
x1 = 0.247 | 1.59 | 2.09 | 2.68 | 3.26
x1 = 0.3371 | 1.52 | 2.02 | 2.61 | 3.22
x1 = 0.3512 | 1.5 | 2 | 2.59 | 3.22
x1 = 0.3799 | 1.45 | 1.95 | 2.52 | 3.17
x1 = 0.3856 | 1.44 | 1.94 | 2.52 | 3.16
x1 = 0.4126 | 1.4 | 1.88 | 2.46 | 3.1
x1 = 0.5649 | 1.1 | 1.37 | 2.01 | 2.63
x1 = 0.6798 | 0.851 | 1.02 | 1.61 | 2.16
x1 = 0.7941 | 0.601 | 0.696 | 1.2 | 1.68
x1 = 0.9258 | 0.305 | 0.38 | 0.717 | 1.06
x1 = 0.9963 | 0.154 | 0.242 | 0.459 | 0.74
x1 = 1 | 0.132 | 0.254 | 0.439 | 0.687

CCCC[n+]1ccc(C)cc1.F[B-](F)(F)F [1-butyl-4-methylpyridinium tetrafluoroborate] + CO
electrical conductivity [S/m]
Conditions | 293.15 K | 303.15 K | 313.15 K | 323.15 K
x1 = 0.0426 | 2.81 | 3.25 | 3.55 | 4.09
x1 = 0.0499 | 2.99 | 3.46 | 3.93 | 4.37
x1 = 0.0584 | 3.18 | 3.71 | 4.17 | 4.65
x1 = 0.0716 | 3.38 | 3.99 | 4.56 | 5.02
x1 = 0.0898 | 3.58 | 4.25 | 4.82 | 5.4
x1 = 0.1093 | 3.72 | 4.43 | 5.08 | 5.67
x1 = 0.1256 | 3.76 | 4.52 | 5.2 | 5.82
x1 = 0.1425 | 3.78 | 4.56 | 5.27 | 5.92
x1 = 0.2197 | 3.47 | 4.38 | 5.15 | 5.85
x1 = 0.2475 | 3.31 | 4.22 | 5 | 5.7
x1 = 0.305 | 3.13 | 3.84 | 4.61 | 5.27
x1 = 0.3465 | 2.81 | 3.53 | 4.27 | 4.9
x1 = 0.4593 | 2.18 | 2.68 | 3.3 | 3.83
x1 = 0.5657 | 1.42 | 1.93 | 2.47 | 2.85
x1 = 0.6744 | 0.993 | 1.28 | 1.71 | 1.99
x1 = 0.7908 | 0.565 | 0.761 | 1.12 | 1.29
x1 = 0.8788 | 0.341 | 0.487 | 0.78 | 0.925
x1 = 1 | 0.132 | 0.254 | 0.439 | 0.687

CCCC[n+]1ccccc1.F[B-](F)(F)F [1-butylpyridinium tetrafluoroborate] + CCO
electrical conductivity [S/m]
Conditions | 303.15 K | 313.15 K | 323.15 K
x1 = 0.0353 | 0.785 | 1.02 | 1.32
x1 = 0.0417 | 0.863 | 1.18 | 1.38
x1 = 0.0455 | 1.06 | 1.27 | 1.54
x1 = 0.0461 | 1.04 | 1.29 | 1.54
x1 = 0.0551 | 1.15 | 1.48 | 1.72
x1 = 0.0564 | 1.24 | 1.5 | 1.83
x1 = 0.0634 | 1.44 | 1.64 | 2.22
x1 = 0.0735 | 1.43 | 1.82 | 2.12
x1 = 0.084 | 1.56 | 1.98 | 2.31
x1 = 0.1033 | 1.68 | 2.24 | 2.56
x1 = 0.1165 | 1.8 | 2.39 | 2.7
x1 = 0.1291 | 1.86 | 2.51 | 2.92
x1 = 0.1597 | 2.16 | 2.74 | 3.01
x1 = 0.1656 | 2.28 | 2.77 | 3.23
x1 = 0.2093 | 2.38 | 2.95 | 3.41
x1 = 0.2237 | 2.44 | 2.96 | 3.43
x1 = 0.2751 | 2.46 | 2.97 | 3.45
x1 = 0.3929 | 2.17 | 2.7 | 3.2
x1 = 0.4464 | 1.96 | 2.5 | 2.86
x1 = 0.5095 | 1.66 | 2.2 | 2.56
x1 = 0.617 | 1.2 | 1.77 | 2.17
x1 = 0.7008 | 0.884 | 1.43 | 1.71
x1 = 0.8158 | 0.566 | 1.03 | 1.28
x1 = 0.8973 | 0.436 | 0.821 | 1.04
x1 = 1 | 0.321 | 0.519 | 0.785

CCCC[n+]1ccccc1.F[B-](F)(F)F [1-butylpyridinium tetrafluoroborate] + CO
electrical conductivity [S/m]
Conditions | 293.15 K | 303.15 K | 313.15 K | 323.15 K
x1 = 0.0432 | 2.87 | 3.37 | 3.91 | 4.28
x1 = 0.0485 | 2.98 | 3.51 | 3.95 | 4.62
x1 = 0.0698 | 3.21 | 3.82 | 4.45 | 5.11
x1 = 0.0901 | 3.45 | 4.17 | 4.89 | 5.46
x1 = 0.1091 | 3.71 | 4.39 | 5.14 | 5.81
x1 = 0.1252 | 3.75 | 4.54 | 5.35 | 6.06
x1 = 0.142 | 3.82 | 4.61 | 5.45 | 6.12
x1 = 0.1629 | 3.79 | 4.59 | 5.49 | 6.19
x1 = 0.1773 | 3.78 | 4.57 | 5.38 | 6.12
x1 = 0.2273 | 3.47 | 4.3 | 5.16 | 6.01
x1 = 0.2401 | 3.43 | 4.26 | 5.13 | 5.94
x1 = 0.2966 | 3.14 | 3.99 | 4.81 | 5.59
x1 = 0.3803 | 2.37 | 3.05 | 3.72 | 4.51
x1 = 0.4277 | 2.07 | 2.71 | 3.39 | 4.08
x1 = 0.4808 | 1.75 | 2.29 | 2.89 | 3.49
x1 = 0.5618 | 1.2 | 1.72 | 2.22 | 2.77
x1 = 0.6317 | 0.894 | 1.35 | 1.81 | 2.35
x1 = 0.698 | 0.74 | 1.07 | 1.45 | 1.89
x1 = 0.8355 | 0.406 | 0.647 | 0.966 | 1.39
x1 = 0.879 | 0.321 | 0.514 | 0.776 | 1.12
x1 = 0.9279 | 0.27 | 0.446 | 0.684 | 0.976
x1 = 1 | 0.181 | 0.321 | 0.519 | 0.785

— the NIST ThermoML archive (doi:10.1021/je301347v)
